# Data as given in patent US20220402925A1, “COMPOUNDS AND METHODS FOR THE TREATMENT OF CYSTIC FIBROSIS” (Flatley Discovery Lab, LLC, priority 2019, published 2022).
# Biological target: T1, F508del CFTR (Homo sapiens, UniProt P13569, DEL508-508)
# T1 construct: Primary CF airway epithelial cells were obtained from the UNC Cystic Fibrosis Tissue Procurement and Cell Culture Core; host or cells: primary CF airway epithelial cells
# Test: Equivalent current assay in primary CF airway epithelial cells (Corrector Activity, NAUC normalized to 3 μM VX809)
# Type: cell-based
# Conditions: NAUC as % of positive control (VX-809)
# Experimental: Primary CF airway epithelial cells were obtained from the UNC Cystic Fibrosis Tissue Procurement and Cell Culture Core. The cells are grown at 37° C. in a Heracell 150i incubator using growth media (BEGM, Fischer). Cells were then transferred to differentiation media (airway liquid interface media (ALI) media; Lechner J F and LaVeck M A, J. Tissue Culture Methods 1985, 9: 43-48) for a minimum of 4 weeks on coated Costar transwells. Two days before the assay the mucus on the apical surface of the cells was aspirated after incubating with 200 μL of differentiation media for at least thirty (30) minutes. One day before the assay test compounds were added to the basolateral surface of the cells at various test concentrations dissolved in DMSO. Duplicate wells were prepared giving a n=4 or n=6 protocol.
# Cells were treated for 24 hours with various combinations and concentrations of the test articles, reference standard (3 μM VX809, positive control). Compounds stock solutions were prepared in DMSO and diluted 1/1000 into ALI media to their final assay concentration. Cells were treated with combination solutions (2 mL of each dilution) and incubated at 37° C. for 24 h.
# For the equivalent current assay, cells on six Transwell (24-well) plates were treated. Each Transwell plate was filled with 200 μl of HBS on the apical surface and 2 ml on the basolateral surface. Plates were placed horizontally in a heated mount at 37° C. and equilibrated for 30 minutes. Resting current was measured for 15 min and then blocked by the apical addition of 5 μM benzamil. After 20 min, CFTR activator (10 μM forskolin) and potentiator (either 1 μM VX-770 or 3 μM FDL176) were added to both the apical and basolateral side to stimulate CFTR. An increase in chloride current is seen as an upward deflection of the trace. After another 60 min, CFTR-172 (a CFTR inhibitor, 20 μM) and/or bumetanide (20 uM) was added to block CFTR mediated chloride current.
# The raw data, voltage vs. time and resistance vs. time for the equivalent current assay (sampling interval: 6 minutes) were transferred to Excel (Microsoft Office Professional, version 14.0.7106.5003) for analysis. CFTR specific current was computed from I=V/R (Ohms Law), the average amplitude of the increase in current elicited upon addition forskolin and ending upon addition of the CFTR channel specific blocker CFTR-172. This average is equivalent to the sum of the average forskolin activated and the average VX770-potentiated currents. The average current measured in vehicle (0.1% DMSO) treated cells, IV, was subtracted from the current for the test article, ITA, or from the corrector reference standard VX809 (3 uM, ISTD). For replicate measurements, the averaged vehicle subtracted response for the test article, was normalized to the averaged vehicle subtracted response of the reference corrector VX809 (3 μM).
# INSC=(ITA−IV)(ave)/(ISTD−IV)(ave) (Equation 1)
# A second endpoint, for the equivalent current assay, evaluated was NAUC, the normalized area under the curve (AUC) measuring the response after addition of forskolin and potentiator to the time point right before the addition of the CFTR inhibitor. The AUC is effectively the average response multiplied by the duration of the response. The AUC of the test article, AUCTA was then corrected by subtracting the average vehicle response, AUCV,ave over the same time range, and normalized as for the inhibitor-sensitive current to the difference of the corrector reference standard VX809 (3 μM VX809r,ave and the vehicle response:
# NAUCTA=[AUCTA−AUCV,ave]/[AUCVx809r,ave−AUCV,ave] (Equation 2).
# The normalized value for DMSO is 0.0 and for VX-809 alone is 1.0 for both of these equations.
# Experiments were run with a minimum of n=4 replicates per concentration. Since the distribution for the ratio of two normal distributions is a Cauchy distribution, the median value must be used for the average and the average deviation must be used for the error of all normalized data. […]
# T1 sequence (P13569 with tags, fused parts or gaps DEL508-508): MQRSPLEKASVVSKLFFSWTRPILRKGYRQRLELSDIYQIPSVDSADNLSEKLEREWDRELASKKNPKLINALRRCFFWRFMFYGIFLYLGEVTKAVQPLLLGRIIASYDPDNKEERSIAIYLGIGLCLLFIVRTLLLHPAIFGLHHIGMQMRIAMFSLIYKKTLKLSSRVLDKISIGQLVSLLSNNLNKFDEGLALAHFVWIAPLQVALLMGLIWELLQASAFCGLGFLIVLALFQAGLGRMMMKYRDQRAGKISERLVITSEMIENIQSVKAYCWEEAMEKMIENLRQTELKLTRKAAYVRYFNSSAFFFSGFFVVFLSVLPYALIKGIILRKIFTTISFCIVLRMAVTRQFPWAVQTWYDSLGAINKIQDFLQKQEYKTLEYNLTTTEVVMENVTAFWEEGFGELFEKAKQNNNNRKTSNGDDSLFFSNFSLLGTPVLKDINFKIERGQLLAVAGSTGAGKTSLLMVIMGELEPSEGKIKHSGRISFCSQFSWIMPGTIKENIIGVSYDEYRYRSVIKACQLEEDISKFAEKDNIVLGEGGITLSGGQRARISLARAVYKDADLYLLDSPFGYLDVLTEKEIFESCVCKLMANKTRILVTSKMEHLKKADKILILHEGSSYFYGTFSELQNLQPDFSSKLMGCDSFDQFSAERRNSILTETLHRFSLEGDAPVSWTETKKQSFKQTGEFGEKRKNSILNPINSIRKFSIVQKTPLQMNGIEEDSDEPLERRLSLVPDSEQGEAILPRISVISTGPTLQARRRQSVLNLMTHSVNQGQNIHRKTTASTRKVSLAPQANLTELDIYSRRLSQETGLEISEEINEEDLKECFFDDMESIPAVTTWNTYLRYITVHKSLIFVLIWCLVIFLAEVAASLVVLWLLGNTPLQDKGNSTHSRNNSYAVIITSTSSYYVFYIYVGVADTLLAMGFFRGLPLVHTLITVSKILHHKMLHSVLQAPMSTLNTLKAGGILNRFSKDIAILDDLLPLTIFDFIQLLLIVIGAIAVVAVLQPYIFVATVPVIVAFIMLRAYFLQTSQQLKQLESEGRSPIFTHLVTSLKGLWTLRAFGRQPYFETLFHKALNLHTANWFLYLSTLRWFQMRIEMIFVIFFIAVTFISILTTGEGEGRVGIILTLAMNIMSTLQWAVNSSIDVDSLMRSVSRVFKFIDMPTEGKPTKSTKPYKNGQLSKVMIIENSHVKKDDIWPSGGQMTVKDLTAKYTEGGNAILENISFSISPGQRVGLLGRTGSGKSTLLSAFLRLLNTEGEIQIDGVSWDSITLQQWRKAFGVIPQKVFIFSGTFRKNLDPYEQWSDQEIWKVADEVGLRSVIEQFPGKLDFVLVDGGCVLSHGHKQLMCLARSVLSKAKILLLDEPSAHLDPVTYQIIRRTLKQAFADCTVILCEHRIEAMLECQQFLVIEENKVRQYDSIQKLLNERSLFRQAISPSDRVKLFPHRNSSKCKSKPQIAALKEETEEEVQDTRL
row,Compound,Corr Activity (NAUC)
1,"Cc1nc2ccc(N(C)C(=O)Cn3nc(-c4cccc(F)c4)c4sccc4c3=O)cc2o1 [Example 1, 2-(7-(3-Fluorophenyl)-4-oxothieno[2,3-d]pyridazin-5(4H)-yl)-N-methyl-N-(2-methylbenzo[d]oxazol-6-yl)acetamide]",+++ (NAUC>70% of positive control)
2,CN(C(=O)Cn1nc(-c2cccc(F)c2)c2sccc2c1=O)c1ccc2c(c1)CCC2 [Example 3],+++ (NAUC>70% of positive control)
3,CCN(C(=O)Cn1nc(-c2cccc(Cl)c2)c2sccc2c1=O)c1ccc2nc(C)oc2c1 [Example 4],+++ (NAUC>70% of positive control)
4,CCN(C(=O)Cn1nc(-c2cccc(Cl)c2)c2sccc2c1=O)c1ccc2c(c1)OC(F)(F)O2 [Example 5],+++ (NAUC>70% of positive control)
5,CN(C(=O)Cn1nc(-c2cccc(C#N)c2)c2sccc2c1=O)c1ccc2c(c1)OC(F)(F)O2 [Example 7],+++ (NAUC>70% of positive control)
6,CCN(C(=O)Cn1nc(-c2cccc(Cl)c2)c2onc(C)c2c1=O)c1ccc2c(c1)OC(F)(F)O2 [Example 18],++ (NAUC 70-40% of positive control)
7,Cc1nc2ccc(N(C)C(=O)Cn3nc(-c4cccc(F)c4)c4sc(C)nc4c3=O)cc2o1 [Example 19],+++ (NAUC>70% of positive control)
8,Cc1nc2ccc(N(C)C(=O)Cn3nc(-c4cccc(Cl)c4)c4sc(C)nc4c3=O)cc2o1 [Example 20],+++ (NAUC>70% of positive control)
9,CCN(C(=O)Cn1nc(-c2cccc(Cl)c2)c2[nH]cnc2c1=O)c1ccc2c(c1)OC(F)(F)O2 [Example 26],+++ (NAUC>70% of positive control)
10,"N#Cc1cccc(-c2nn(CC(=O)N(c3ccc4c(c3)OC(F)(F)O4)C3CCC3)c(=O)c3ccoc23)c1 [Example 33, 2-(7-(3-cyanophenyl)-4-oxofuro[2,3-d]pyridazin-5(4H)-yl)-N-cyclobutyl-N-(2,2-difluorobenzo[d][1,3]dioxol-5-yl)acetamide]",+++ (NAUC>70% of positive control)
11,N#Cc1cccc(-c2nn(CC(=O)N(c3ccc4c(c3)OC(F)(F)O4)C3CCOC3)c(=O)c3ccoc23)c1 (stereo not shown) [Example 39],+++ (NAUC>70% of positive control)
12,N#Cc1cccc(-c2nn(CC(=O)N(c3ccc4c(c3)OC(F)(F)O4)C3CC3)c(=O)c3ccoc23)c1 [Example 40],++ (NAUC 70-40% of positive control)
13,CN(C(=O)Cn1nc(-c2cc(F)cc(F)c2)c2occc2c1=O)c1ccc2c(c1)OC(F)(F)O2 [Example 41],+++ (NAUC>70% of positive control)
14,CN(C(=O)Cn1nc(-c2cc(Cl)cc(Cl)c2)c2occc2c1=O)c1ccc2c(c1)OC(F)(F)O2 [Example 42],+++ (NAUC>70% of positive control)
15,CCN(C(=O)Cn1nc(-c2cccc(F)c2)c2c(c1=O)CCC2)c1ccc2nc(C)oc2c1 [Example 43],+++ (NAUC>70% of positive control)
16,Cc1cc2c(cc1N(C)C(=O)Cn1nc(-c3cccc(C#N)c3)c3occc3c1=O)OC(F)(F)O2 [Example 44],+++ (NAUC>70% of positive control)
17,CCN(C(=O)Cn1nc(-c2cccc(C#N)c2)c2occc2c1=O)c1cc2c(cc1C)OC(F)(F)O2 [Example 45],+++ (NAUC>70% of positive control)
18,CCN(C(=O)Cn1nc(-c2cc(F)cc(OC)c2)c2occc2c1=O)c1ccc2c(c1)OC(F)(F)O2 [Example 47],+++ (NAUC>70% of positive control)
19,Cc1nc2ccc(N(C)C(=O)Cn3nc(-c4cccc(Cl)c4)c4c(c3=O)CCC4)cc2o1 [Example 48],++ (NAUC 70-40% of positive control)
20,CCN(C(=O)Cn1nc(-c2cccc(Cl)c2)c2c(c1=O)CCC2)c1ccc2nc(C)oc2c1 [Example 49],++ (NAUC 70-40% of positive control)
21,CCN(C(=O)Cn1nc(-c2cccc(C#N)c2)c2c(c1=O)CCC2)c1ccc2nc(C)oc2c1 [Example 50],+++ (NAUC>70% of positive control)
22,O=C(Cn1nc(-c2cccc(Cl)c2)c2occc2c1=O)N1CCCc2c1ccc1c2OC(F)(F)O1 [Example 51],++ (NAUC 70-40% of positive control)

# Other lines, results leading:
row,Corr Activity (NAUC),Compound
1,++ (NAUC 70-40% of positive control),N#Cc1cccc(-c2nn(CC(=O)N3CCCc4c3ccc3c4OC(F)(F)O3)c(=O)c3ccoc23)c1 [Example 52]
2,+++ (NAUC>70% of positive control),Cc1c(N(C)C(=O)Cn2nc(-c3cccc(C#N)c3)c3occc3c2=O)ccc2c1OC(F)(F)O2 [Example 53]
3,+++ (NAUC>70% of positive control),CCN(C(=O)Cn1nc(-c2cccc(C#N)c2)c2occc2c1=O)c1ccc2c(c1C)OC(F)(F)O2 [Example 54]
4,+++ (NAUC>70% of positive control),CCc1c(N(CC)C(=O)Cn2nc(-c3cccc(C#N)c3)c3occc3c2=O)ccc2c1OC(F)(F)O2 [Example 55]
5,+ (NAUC<40% of positive control),CCc1cc2c(cc1N(CC)C(=O)Cn1nc(-c3cccc(C#N)c3)c3occc3c1=O)OC(F)(F)O2 [Example 56]
6,+ (NAUC<40% of positive control),N#Cc1cccc(-c2nn(CC(=O)N3CC4(CC4)c4c3ccc3c4OC(F)(F)O3)c(=O)c3ccoc23)c1 [Example 58]
7,+++ (NAUC>70% of positive control),CN(C(=O)Cn1nc(-c2cccc(C#N)c2)c2occc2c1=O)c1ccc2c(c1F)OC(F)(F)O2 [Example 59]
8,+++ (NAUC>70% of positive control),CCN(C(=O)Cn1nc(-c2cccc(C#N)c2)c2occc2c1=O)c1ccc2c(c1F)OC(F)(F)O2 [Example 60]
9,+ (NAUC<40% of positive control),CCN(C(=O)Cn1nc(-c2cccc(C#N)c2)c2occc2c1=O)c1ccc(C(F)(F)F)cc1 [Example 61]
10,+ (NAUC<40% of positive control),CCN(C(=O)Cn1nc(-c2cccc(C#N)c2)c2occc2c1=O)c1ccc(OC(F)(F)F)cc1 [Example 62]
11,++ (NAUC 70-40% of positive control),CCN(C(=O)Cn1nc(-c2cccc(C#N)c2)c2oc(Cl)cc2c1=O)c1ccc2c(c1)OC(F)(F)O2 [Example 63]
12,++ (NAUC 70-40% of positive control),CN(C(=O)Cn1nc(-c2cccc(C#N)c2)c2oc(Cl)cc2c1=O)c1ccc2c(c1)OC(F)(F)O2 [Example 64]
13,+ (NAUC<40% of positive control),"CN(C(=O)Cn1nc(-c2cccc(Cl)c2)c2oc(C(=O)N3CCCC3)cc2c1=O)c1ccc2c(c1)OC(F)(F)O2 [Example 65, 2-(7-(3-chlorophenyl)-4-oxo-2-(pyrrolidine-1-carbonyl)furo[2,3-d]pyridazin-5(4H)-yl)-N-(2,2-difluorobenzo[d][1,3]dioxol-5-yl)-N-methylacetamide]"
14,+++ (NAUC>70% of positive control),CCN(C(=O)Cn1nc(-c2cccc(C#N)c2)c2oc(C)cc2c1=O)c1ccc2c(c1)OC(F)(F)O2 [Example 69]
15,+++ (NAUC>70% of positive control),Cc1cc2c(=O)n(CC(=O)N(C)c3ccc4c(c3)OC(F)(F)O4)nc(-c3cc(Cl)cc(Cl)c3)c2o1 [Example 70]
16,+++ (NAUC>70% of positive control),Cc1cc2c(=O)n(CC(=O)N(C)c3ccc4c(c3)OC(F)(F)O4)nc(-c3cc(F)cc(F)c3)c2o1 [Example 71]
17,+++ (NAUC>70% of positive control),Cc1cc2c(=O)n(CC(=O)N(C)c3ccc4c(c3)OC(F)(F)O4)nc(-c3cc(Cl)cc(C#N)c3)c2o1 [Example 72]
18,+++ (NAUC>70% of positive control),CCN(C(=O)Cn1nc(-c2cc(Cl)cc(Cl)c2)c2oc(C)cc2c1=O)c1ccc2c(c1)OC(F)(F)O2 [Example 73]
